The values that follow come from patent US6329392A, “Substituted piperidines useful for the treatment of allergic diseases” (Aventis Pharmaceuticals, Inc., priority 1998, dated 2001).

Assay [1] addresses T1, NK1 receptor (Cavia porcellus, UniProt P30547).
T1 construct: as evaluated in guinea pig lungs (Keystone Biologicals, Cleveland, Ohio); tissue Keystone Biologicals, Cleveland, Ohio; host or cells: guinea pig lung membranes
Put plainly: Antagonism of iodinated tachykinin (substance P) binding to NK1 receptors in guinea pig lungs. The following applies: read-out: NK1 Receptor Binding Affinity, IC50. The protocol:
Antagonism of iodinated tachykinin binding to NK1 receptors by putative antagonists
One skilled in the art can measure the NK1 receptor affinity of proposed tachykinin antagonists as evaluated in guinea pig lungs (Keystone Biologicals, Cleveland, Ohio). Tissues or cells are homogenized with a Polytron in 15 volumes of 50 mM Tris-HCl buffer (pH 7.4, […]) and centrifuged. The pellet is resuspended in Tris-HCl buffer and centrifuged; the pellet is washed twice by resuspension. The final pellet is resuspended at a concentration of 40 mg/ml incubation buffer and remains at room temperature for at least 15 min prior to use. […] Incubations are performed at room temperature for 90 min; binding is terminated by addition of 50 mM Tris-HCl buffer (pH 7.4, […]) and filtration under vacuum through GF/B filters presoaked with 0.1% polyethyleneimine. Filter bound radioactivity is quantitated in a gamma counter. […] IC50 values (concentration required to inhibit 50% of receptor binding) are generated for each of the test compounds by nonlinear regression using an iterative curve fitting program (GraphPAD Inplot, San Diego, Calif.).

Assay [2] concerns the target T2, H1 receptor (Cavia porcellus, UniProt P31389).
T2 construct: A piece of ileum, about 20 cm in length, is removed and cut into 2 cm pieces; from tissue; host or cells: ileum of male Hartley guinea pigs
Nature of the assay: Histamine (H1) antagonism in guinea pig ileum. The conditions noted are these: read-out: H1 Receptor Antagonism, pA2, in vitro (converted). It counts as cell-based. The protocol: Male Hartley guinea pigs, weighing 200-450 grams, are sacrificed by CO2 asphyxiation. A piece of ileum, about 20 cm in length, is removed and cut into 2 cm pieces. Each ileum piece is placed in an organ bath at 37° C. containing Tyrode's solution and is constantly aerated with 95% O2 /5%CO2. Tyrode's solution has the composition: NaCl 136.9 mM, KCl […], CaCl2 1.8 mM, NaH2 PO4 0.42 mM, NaHCO3 11.9 mM, and dextrose 5.55 mM. Contractions are measured with an isometric transducer (Grass FTO3C), and are recorded on a polygraph recorder and/or a computer. The ileum strips are loaded with 1.0 grams of tension and allowed to equilibrate for a minimum of 30 minutes before starting the experiments.
The potency of the antagonism is determined by the magnitude of the shift and is expressed as a pA2 value which is the negative logarithm of the molar concentration of antagonist which produces a two-fold shift of the dose response curve to the right. The pA2 value is calculated by using Schild analysis. O. Arunlakshana and H. O. Schild, Br. J. Pharmacol Chemother. 14, 48-58 (1958).
Table 1 presents pA2 values by the method of Example 93 which indicate potency of H1 receptor antagonism and IC50 values by the method of Example 95 which indicates NK1 receptor binding affinity for representative compounds of the present invention.

T2 sequence (P31389 whole entry): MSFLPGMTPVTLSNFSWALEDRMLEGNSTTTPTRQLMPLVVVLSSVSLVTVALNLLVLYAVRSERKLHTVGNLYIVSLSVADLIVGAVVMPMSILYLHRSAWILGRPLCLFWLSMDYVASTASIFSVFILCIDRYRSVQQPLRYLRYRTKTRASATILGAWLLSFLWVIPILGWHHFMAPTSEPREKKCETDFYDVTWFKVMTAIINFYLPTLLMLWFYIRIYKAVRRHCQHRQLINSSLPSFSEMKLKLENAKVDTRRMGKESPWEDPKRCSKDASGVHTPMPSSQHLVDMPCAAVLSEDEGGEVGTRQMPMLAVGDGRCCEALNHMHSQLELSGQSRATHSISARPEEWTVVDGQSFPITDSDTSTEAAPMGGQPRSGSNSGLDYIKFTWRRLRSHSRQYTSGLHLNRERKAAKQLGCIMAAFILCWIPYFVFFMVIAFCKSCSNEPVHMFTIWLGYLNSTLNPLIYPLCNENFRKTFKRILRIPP
T1 sequence (P30547 whole entry): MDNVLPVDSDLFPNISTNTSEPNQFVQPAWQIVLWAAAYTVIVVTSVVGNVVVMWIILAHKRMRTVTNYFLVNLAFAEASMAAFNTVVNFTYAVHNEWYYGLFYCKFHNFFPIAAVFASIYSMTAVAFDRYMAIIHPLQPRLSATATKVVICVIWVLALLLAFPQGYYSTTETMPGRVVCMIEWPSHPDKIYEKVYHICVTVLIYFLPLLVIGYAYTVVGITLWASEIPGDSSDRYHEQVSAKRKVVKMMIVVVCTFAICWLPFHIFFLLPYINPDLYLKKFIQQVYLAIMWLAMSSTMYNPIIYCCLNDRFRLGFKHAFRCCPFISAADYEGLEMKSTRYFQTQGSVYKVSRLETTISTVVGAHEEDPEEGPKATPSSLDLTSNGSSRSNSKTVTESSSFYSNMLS

A word on the IC50: it is the concentration that gives 50% inhibition. For `COc1cc(C(=O)N2CCC(CCN3CCC(C(=O)c4nc5ccccc5n4Cc4ccccn4)CC3)(c3ccc(Cl)c(Cl)c3)C2)cc(OC)c1OC` (stereo not shown) [Example 33, 1-(3,4,5-Trimethoxy-benzoyl)-3-[2-[4-[1-(pyrid-2-ylmethyl)-1 H-benzoimidazole-2-carbonyl]-piperidin-1-yl]-ethyl]-3-(3,4-dichloro-phenyl)-pyrrolidine], the IC50 in assay [1] was 38 nM. Also, the Kb in assay [2] is 41.7 nM.
Turning to `COc1cc(C(=O)N2CCC(CCN3CCC(C(=O)c4nc5ccccc5n4Cc4ccccn4)CC3)(c3ccccc3)C2)cc(OC)c1OC` (stereo not shown) [Example 37, 1-(3,4,5-Trimethoxy-benzoyl)-3-[2-[4-[1-(pyrid-2-ylmethyl)-1 H-benzoimidazole-2-carbonyl]-piperidin-1-yl]-ethyl]-3-phenyl-pyrrolidine], the IC50 in assay [1] came to 17 nM. Moreover, in assay [2], the Kb is 25.1 nM.
As for `COc1cc(C(=O)N2CCC(CCN3CCC(C(=O)c4nc5ccccc5n4Cc4ccc(C(=O)O)cc4)CC3)(c3ccccc3)C2)cc(OC)c1OC` (stereo not shown) [Example 39, 1-(3,4,5-Trimethoxy-benzoyl)-3-[2-[4-[1-(4-carboxy-benzyl)-1 H-benzoimidazole-2-carbonyl]-piperidin-1-yl]-ethyl]-3-phenyl-pyrrolidine], the concentration for half-maximal inhibition (IC50) in assay [1] was 29 nM. For the same compound, the Kb in assay [2] is 891 nM.
Consider `CCOCCn1c(C(=O)C2CCN(CCC3(c4ccccc4)CCN(C(=O)c4cc(OC)c(OC)c(OC)c4)C3)CC2)nc2ccccc21` (stereo not shown) [Example 40, 1-(3,4,5-Trimethoxy-benzoyl)-3-[2-[4-[1-(2-ethoxy-ethyl)-1 H-benzoimidazole-2-carbonyl]-piperidin-1-yl]-ethyl]-3-phenyl-pyrrolidine], for which, in assay [1], the half-maximal inhibitory concentration (IC50) was determined as 24 nM. In addition, in assay [2], the Kb is 41.7 nM.
The corresponding values for `COc1ccc(C2(CCN3CCC(C(=O)c4nc5ccccc5n4Cc4ccc(C(=O)O)cc4)CC3)CCN(C(=O)c3cc(OC)c(OC)c(OC)c3)C2)cc1OC` (stereo not shown) [Example 43] are 48 nM and 6760 nM.
In the case of `COc1cc(C(=O)N2CCC(CCN3CCC(C(=O)c4nc5ccccc5n4Cc4ccco4)CC3)(c3ccccc3)C2)cc(OC)c1OC` (stereo not shown) [Example 44, 1-(3,4,5-Trimethoxy-benzoyl)-3-[2-[4-[1-(fur-2-ylmethyl)-1 H-benzoimidazole-2-carbonyl]-piperidin-1-yl]-ethyl]-3-phenyl-pyrrolidine], the IC50 in assay [1] was determined as 13 nM. The Kb in assay [2] was 63.1 nM.
The corresponding values for `COc1cc(C(=O)N2CCC(CCN3CCC(C(=O)c4nc5ccccc5n4CCOCc4ccco4)CC3)(c3ccccc3)C2)cc(OC)c1OC` (stereo not shown) [Example 45, 1-(3,4,5-Trimethoxy-benzoyl)-3-[2-[4-[1-(2-fur-2-ylmethoxy-ethyl)-1 H-benzoimidazole-2-carbonyl]-piperidin-1-yl]-ethyl]-3-phenyl-pyrrolidine] are 9 nM and 35.5 nM.
The corresponding values for `COc1cc(CN2CCC(CCN3CCC(O)(c4nc5ccccc5n4Cc4ccc(F)cc4)CC3)(Cc3ccccc3)C2=O)cc(OC)c1OC` (stereo not shown) [Example 53, 1-(3,4,5-Trimethoxy-benzyl)-3-[2-[4-[1-(4-fluoro-benzyl)-1H-benzoimidazol-2-yl]-4-hydroxy-piperidin-1-yl]-ethyl]-3-(phenylmethyl)-2-oxo-pyrrolidine] are 191 nM and 204 nM.
Regarding `COc1cc(CN2CCC(CCN3CCC(O)(c4nc5ccccc5n4Cc4ccc(F)cc4)CC3)(Cc3ccc(Cl)c(Cl)c3)C2=O)cc(OC)c1OC` (stereo not shown) [Example 54, 1-(3,4,5-Trimethoxy-benzvl)-3-[2-[4-[1-(4-fluoro-benzyl)-1H-benzoimidazol-2-yl]-4-hydroxy-piperidin-1-yl]-ethyl]-3-(3,4-dichloro-phenylmethyl)-2-oxo-pyrrolidine], the IC50 in assay [1] worked out at 269 nM. Also, in assay [2], the Kb is 479 nM.
In the same order, the values of `COc1ccc(CC2(CCN3CCC(O)(c4nc5ccccc5n4Cc4ccc(F)cc4)CC3)CCN(Cc3cc(OC)c(OC)c(OC)c3)C2=O)cc1OC` (stereo not shown) [Example 55, 1-(3,4,5-Trimethoxy-benzyl)-3-[2-[4-[1-(4-fluoro-benzyl)-1H-benzoimidazol-2-yl]-4-hydroxy-piperidin-1-yl]-ethyl]-3-(3,4-dimethoxy-phenylmethyl)-2-oxo-pyrrolidine] are 385 nM and 912 nM.
With `COc1cc(CN2CCC(CCN3CCC(O)(c4nc5ccccc5n4Cc4ccc(F)cc4)CC3)(Cc3ccc(F)cc3)C2=O)cc(OC)c1OC` (stereo not shown) [Example 57, 1-(3,4,5-Trimethoxy-benzyl)-3-[2-[4-[1-(4-fluoro-benzyl)-1H-benzoimidazol-2-yl]-4-hydroxy-piperidin-1-yl]-ethyl]-3-(4-fluoro-phenylmethyl)-2-oxo-pyrrolidine], the 50% inhibitory concentration (IC50) in assay [1] is 114 nM. For the same compound, the Kb in assay [2] is 155 nM.
Take `COc1cc(CN2CCC(CCN3CCC(O)(c4nc5ccccc5n4Cc4ccc(F)cc4)CC3)(Cc3ccc(F)cc3F)C2=O)cc(OC)c1OC` (stereo not shown) [Example 58, 1-(3,4,5-Trimethoxy-benzyl)-3-[2-[4-[1-(4-fluoro-benzyl)-1H-benzoimidazol-2-yl]-4-hydroxy-piperidin-1-yl]-ethyl]-3-(2,4-difluoro-phenylmethyl)-2-oxo-pyrrolidine]: in assay [1], the IC50 worked out at 345 nM. For the same compound, the Kb in assay [2] was 151 nM.
As to `CC(C)Oc1cccc(CC(=O)N2CCCC(CCN3CCC(C(=O)c4nc5ccccc5n4Cc4ccc(F)cc4)CC3)(c3ccc(Cl)c(Cl)c3)C2)c1` (stereo not shown) [Example 63, 1-(3-Isopropoxy-phenyl-acetyl)-3-[2-[4-[1-(4-fluoro-benzyl)-1H-benzoimidazole-2-carbonyl]-piperidin-1-yl]-ethyl]-3-(3,4-dichloro-phenyl)-piperidine], the IC50 in assay [1] was determined as 279 nM. For the same compound, the Kb in assay [2] was 79.4 nM.
In the case of `CCOCCn1c(C(=O)C2CCN(CCC3(c4ccc(Cl)c(Cl)c4)CCN(C(=O)c4cc(OC)c(OC)c(OC)c4)C3)CC2)nc2ccccc21` (stereo not shown) [Example 83, 1-(3,4,5-Trimethoxy-benzoyl)-3-[2-[4-[1-(2-ethoxy-ethyl)-1H-benzoimidazole-2-carbonyl]-piperidin-1-yl]-ethyl]-3-(3,4-dichloro-phenyl)-pyrrolidine], the half-maximal inhibitory concentration (IC50) in assay [1] worked out at 31 nM. Also, the Kb in assay [2] is 105 nM.
